Measured values published in patent EP0437336B1, “Biophosphoryl hydrazines and their use as pesticides” (priority 1990, dated 1991).
In brackets after ≈: the same amount, converted by molar mass. Where two headings read alike, the source gives them in different places.

How the values were obtained:
[1] = tested on: southern corn rootworm, Diabrotica undecimpunctata howardi; experiment: Biological Method A: Corn Rootworm Screening Test (treated non-aggressive soil); details: soil concentration giving 90% mortality, 10 days at 27°C
[2] = tested on: Mexican Bean Beetle; experiment: Biological Method D: Foliar Insecticidal Activity Test, Mexican Bean Beetle test; assay type: in vivo, Epilachna varivestis; details: Epilachna varivestis, Method D foliar test, Mexican Bean Beetle
[3] = tested on: Boll Weevil; experiment: Biological Method D: Foliar Insecticidal Activity Test, boll weevil test; assay type: in vivo, Anthonomous grandis; parameters: key: I = inactive at concentration listed
[4] = tested on: Two-Spotted Spider Mite; experiment: Biological Method D: Foliar Insecticidal Activity Test, mite test; assay type: in vivo, Tetranychus urticae; parameters: key to LC50 TSM: I = inactive at concentration listed; details: Method D foliar test, Two-Spotted Spider Mite; for LC50: Tetranychus urticae, read-out: LC50 TSM
[5] = tested on: Green Peach Aphid; experiment: Biological Method D: Foliar Insecticidal Activity Test, aphid test; assay type: in vivo, Myzus persicae; parameters: key: I = inactive at concentration listed
[6] = tested on: southern corn rootworm, Diabrotica undecimpunctata howardi; details: for pest or weed control at 560 g/ha: Diabrotica undecimpunctata, in Zea mays, foliar, 336 h, read-out: foliar systemic nonagressive Method B crw % control at 0.56 kg/ha (0.5 lb/acre); for foliar systemic nonagressive Method B crw % control at 0.56 kg/ha (0.5 lb/acre): percent control relative to infested check, from root damage ratings, 14 days post-spraying
[7] = tested on: southern corn rootworm, Diabrotica undecimpunctata howardi; details: at-planting soil application
[8] = tested on: Southern Armyworm; experiment: Biological Method D: Foliar Insecticidal Activity Test, Southern Armyworm test; assay type: in vivo, Spodoptera eridania; parameters: key: I = inactive at concentration listed
[9] = tested on: Boll Weevil; experiment: Biological Method D: Foliar Insecticidal Activity Test, boll weevil test; assay type: in vivo, Anthonomous grandis; details: Method D foliar test; Boll Weevil; 96 hrs
[10] = 48 hrs, read-out: LC50 BB 48 hrs.
[11] = 96 hrs, read-out: LC50 BB 96 hrs

Structure (SMILES): CCCOP(=S)(NNP(=S)(OC(C)C)OC(C)C)OCCC [Compound 16, reference compound]
- primary nonagressive Method A crw LC90 [1]: 0.95 ppm
- LC50 [2, 10]: 150 µg/mL (≈ 382 µM)
- LC50 [2, 11]: 62 µg/mL (≈ 158 µM)
- LC50 BW 48 hrs [3]: I
- LC50 BW 96 hrs [3]: I
- LC50 TSM [4]: I
- LC50 GPA [5]: I
- pest or weed control at 560 g/ha [6]: 46%
- secondary aggressive Method C crw LC50 ([7]; rated 17 days post-infestation): 1.03 kg/ha
- secondary aggressive Method C crw LC50 ([7]; value in brackets): 0.92 lb/acre
- LC50 AW 48 hrs [8]: I
- LC50 AW 96 hrs [8]: I

Structure (SMILES): CCCCOP(=S)(NNP(=S)(OCCC)OCCC)OCC (stereo not drawn) [Compound 17]
- primary nonagressive Method A crw LC90 [1]: 1.1 ppm
- LC50 [2, 10]: 150 µg/mL (≈ 382 µM)
- LC50 [2, 11]: 62 µg/mL (≈ 158 µM)
- LC50 BW 48 hrs [3]: I
- LC50 BW 96 hrs [3]: I
- LC50 TSM [4]: I
- LC50 GPA [5]: I
- pest or weed control at 560 g/ha [6]: 38%
- secondary aggressive Method C crw LC50 ([7]; rated 17 days post-infestation): 1.02 kg/ha
- secondary aggressive Method C crw LC50 ([7]; value in brackets): 0.91 lb/acre
- LC50 AW 48 hrs [8]: I
- LC50 AW 96 hrs [8]: I

Structure (SMILES): CCOP(=S)(NNP(=S)(OC(C)C)OC(C)C)OCC [Compound 9, reference compound]
- primary nonagressive Method A crw LC90 [1]: 0.41 ppm
- LC50 [2, 10]: 300 µg/mL (≈ 823 µM)
- LC50 [2, 11]: 150 µg/mL (≈ 412 µM)
- LC50 BW 48 hrs [3]: I
- LC50 BW 96 hrs [3]: I
- LC50 [4]: 76 µg/mL (≈ 209 µM)
- LC50 GPA [5]: I
- foliar systemic nonagressive Method B crw % control at 0.56 kg/ha (0.5 lb/acre) [6]: 64%
- secondary aggressive Method C crw LC50 ([7]; rated 17 days post-infestation): 1.1 kg/ha
- secondary aggressive Method C crw LC50 ([7]; value in brackets): 0.98 lb/acre
- LC50 AW 48 hrs [8]: I
- LC50 AW 96 hrs [8]: I

Structure (SMILES): CCOP(=S)(NNP(=S)(OCC)SC(C)C)OCC (stereo not drawn) [Compound 20]
- primary nonagressive Method A crw LC90 [1]: 0.40 ppm
- LC50 [2, 10]: 110 µg/mL (≈ 300 µM)
- LC50 [2, 11]: 52 µg/mL (≈ 142 µM)
- LC50 BW 48 hrs [3]: I
- LC50 BW 96 hrs [3]: I
- LC50 TSM [4]: I
- LC50 GPA [5]: I
- foliar systemic nonagressive Method B crw % control at 0.56 kg/ha (0.5 lb/acre) [6]: 50%
- secondary aggressive Method C crw LC50 ([7]; rated 17 days post-infestation): 1.01 kg/ha
- secondary aggressive Method C crw LC50 ([7]; value in brackets): 0.90 lb/acre
- LC50 AW 48 hrs [8]: I
- LC50 AW 96 hrs [8]: I

Structure (SMILES): CCCOP(=S)(NNP(=S)(OCC)OCC)OCCC [Compound 13, reference compound]
- primary nonagressive Method A crw LC90 [1]: <0.1 ppm
- LC50 [2, 10]: 150 µg/mL (≈ 412 µM)
- LC50 [2, 11]: 52 µg/mL (≈ 143 µM)
- LC50 BW 48 hrs [3]: I
- LC50 BW 96 hrs [3]: I
- LC50 TSM [4]: I
- LC50 GPA [5]: I
- foliar systemic nonagressive Method B crw % control at 0.56 kg/ha (0.5 lb/acre) [6]: 46%
- LC50 AW 48 hrs [8]: I
- LC50 AW 96 hrs [8]: I

Structure (SMILES): CCCOP(=S)(NNP(=S)(OCCC)OCCC)OCCC [Compound 14, reference compound]
- primary nonagressive Method A crw LC90 [1]: 0.39 ppm
- LC50 [2, 10]: 500 µg/mL (≈ 1270 µM)
- LC50 [2, 11]: 52 µg/mL (≈ 132 µM)
- LC50 BW 48 hrs [3]: I
- LC50 BW 96 hrs [3]: I
- LC50 TSM [4]: I
- LC50 GPA [5]: I
- pest or weed control at 560 g/ha [6]: 46%
- secondary aggressive Method C crw LC50 ([7]; rated 17 days post-infestation): 1.12 kg/ha
- secondary aggressive Method C crw LC50 ([7]; value in brackets): 1.0 lb/acre
- LC50 AW 48 hrs [8]: I
- LC50 AW 96 hrs [8]: I

Structure (SMILES): CCCOP(=S)(NNP(=S)(OCC)OCC(C)C)OCCC (stereo not drawn) [Compound 18, N-(O,O-dipropylthiophosphoryl) N′-(O-ethyl O-isobutylthiophosphoryl) hydrazine]
- primary nonagressive Method A crw LC90 [1]: <0.1 ppm
- LC50 [2, 10]: 150 µg/mL (≈ 382 µM)
- LC50 [2, 11]: 78 µg/mL (≈ 199 µM)
- LC50 BW 48 hrs [3]: I
- LC50 BW 96 hrs [3]: I
- LC50 TSM [4]: I
- LC50 GPA [5]: I
- pest or weed control at 560 g/ha [6]: 61%
- secondary aggressive Method C crw LC50 ([7]; rated 17 days post-infestation): 0.36 kg/ha
- secondary aggressive Method C crw LC50 ([7]; value in brackets): 0.32 lb/acre
- LC50 AW 48 hrs [8]: I
- LC50 AW 96 hrs [8]: I

Structure (SMILES): CCCOP(=S)(NNP(=S)(OCC)OCC)OCC (stereo not drawn) [Compound 6]
- primary nonagressive Method A crw LC90 [1]: <0.1 ppm
- LC50 [2, 10]: 420 µg/mL (≈ 1200 µM)
- LC50 BW 48 hrs [3]: I
- LC50 BW 96 hrs [3]: I
- LC50 [4]: 150 µg/mL (≈ 428 µM)
- LC50 GPA [5]: I
- foliar systemic nonagressive Method B crw % control at 0.56 kg/ha (0.5 lb/acre) [6]: 3%
- LC50 AW 48 hrs [8]: I
- LC50 AW 96 hrs [8]: I

Structure (SMILES): CCOP(=S)(NNP(=S)(OCC)OC(C)C(F)(F)F)OCC (stereo not drawn) [Compound 15]
- primary nonagressive Method A crw LC90 [1]: <0.1 ppm
- LC50 [2, 10]: 150 µg/mL (≈ 371 µM)
- LC50 [2, 11]: 62 µg/mL (≈ 153 µM)
- LC50 BW 48 hrs [3]: I
- LC50 BW 96 hrs [3]: I
- LC50 TSM [4]: I
- LC50 GPA [5]: I
- pest or weed control at 560 g/ha [6]: 54%
- LC50 AW 48 hrs [8]: I
- LC50 AW 96 hrs [8]: I

Structure (SMILES): C#CCOP(=S)(NNP(=S)(OCC)OCC)OCC (stereo not drawn) [Compound 12]
- primary nonagressive Method A crw LC90 [1]: 0.56 ppm
- LC50 [2, 10]: 150 µg/mL (≈ 433 µM)
- LC50 [2, 11]: 62 µg/mL (≈ 179 µM)
- LC50 BW 48 hrs [3]: I
- LC50 BW 96 hrs [3]: I
- LC50 TSM [4]: I
- LC50 GPA [5]: I
- foliar systemic nonagressive Method B crw % control at 0.56 kg/ha (0.5 lb/acre) [6]: 30%
- LC50 AW 48 hrs [8]: I
- LC50 AW 96 hrs [8]: I

Structure (SMILES): CCOP(=S)(NNP(=S)(OCC)O[C@H]1C[C@@H](C)CC[C@@H]1C(C)C)OCC (stereo partly drawn) [Compound 35]
- primary nonagressive Method A crw LC90 [1]: 0.77 ppm
- LC50 [2, 10]: 250 µg/mL (≈ 560 µM)
- LC50 [2, 11]: 52 µg/mL (≈ 116 µM)
- LC50 BW 48 hrs [3]: I
- LC50 BW 96 hrs [3]: I
- LC50 TSM [4]: I
- LC50 GPA [5]: I
- pest or weed control at 560 g/ha [6]: 38%
- LC50 AW 48 hrs [8]: I
- LC50 AW 96 hrs [8]: I

Structure (SMILES): CCCNP(=S)(NNP(=S)(OCC)OCC)OCC (stereo not drawn) [Compound 24]
- primary nonagressive Method A crw LC90 [1]: 1.1 ppm
- LC50 [2, 10]: 27 µg/mL (≈ 77.3 µM)
- LC50 [2, 11]: 31 µg/mL (≈ 88.7 µM)
- LC50 BW 48 hrs [3]: I
- LC50 TSM [4]: I
- LC50 BW 96 hrs [9]: 380 ppm
- LC50 GPA [5]: I
- foliar systemic nonagressive Method B crw % control at 0.56 kg/ha (0.5 lb/acre) [6]: 38%
- LC50 AW 48 hrs [8]: I
- LC50 AW 96 hrs [8]: I

Structure (SMILES): CCOP(=S)(NNP(=S)(OCC)OC(C)(C(F)(F)F)C(F)(F)F)OCC (stereo not drawn) [Compound 39]
- primary nonagressive Method A crw LC90 [1]: 0.71 ppm
- LC50 [2, 10]: 31 µg/mL (≈ 65.6 µM)
- LC50 [2, 11]: 150 µg/mL (≈ 318 µM)
- LC50 BW 48 hrs [3]: I
- LC50 BW 96 hrs [3]: I
- LC50 [4]: 150 µg/mL (≈ 318 µM)
- LC50 GPA [5]: I
- pest or weed control at 560 g/ha [6]: 46%
- LC50 AW 48 hrs [8]: I
- LC50 AW 96 hrs [8]: I

Structure (SMILES): C=CCOP(=S)(NNP(=S)(OCC)OCC)OCC (stereo not drawn) [Compound 10]
- primary nonagressive Method A crw LC90 [1]: 0.79 ppm
- LC50 [2, 11]: 78 µg/mL (≈ 224 µM)
- LC50 BW 48 hrs [3]: I
- LC50 BW 96 hrs [3]: I
- LC50 [4]: 510 µg/mL (≈ 1460 µM)
- LC50 GPA [5]: I
- foliar systemic nonagressive Method B crw % control at 0.56 kg/ha (0.5 lb/acre) [6]: 34%
- LC50 AW 48 hrs [8]: I
- LC50 AW 96 hrs [8]: I
